From ChEMBL document CHEMBL4665650, “Towards a TREK-1/2 (TWIK-Related K+ Channel 1 and 2) dual activator tool compound: Multi-dimensional optimization of BL-1249” (Bioorg Med Chem Lett, 2019) come the findings set out here.

The target in series [1] is T1, Potassium channel subfamily K member 2 (Homo sapiens, UniProt O95069).
T1 sequence (O95069 whole entry): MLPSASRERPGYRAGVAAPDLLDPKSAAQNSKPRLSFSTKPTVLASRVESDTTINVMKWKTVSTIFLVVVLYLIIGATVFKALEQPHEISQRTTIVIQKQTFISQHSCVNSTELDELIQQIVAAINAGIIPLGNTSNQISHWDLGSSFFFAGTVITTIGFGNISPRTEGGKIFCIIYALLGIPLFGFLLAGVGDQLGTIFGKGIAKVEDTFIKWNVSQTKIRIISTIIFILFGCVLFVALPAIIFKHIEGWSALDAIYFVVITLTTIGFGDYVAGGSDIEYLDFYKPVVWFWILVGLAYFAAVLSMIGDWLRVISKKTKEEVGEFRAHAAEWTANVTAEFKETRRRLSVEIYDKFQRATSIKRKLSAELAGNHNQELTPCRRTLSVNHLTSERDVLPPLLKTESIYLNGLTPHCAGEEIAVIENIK
The series can be described thus: Activation of human TREK1 by thallium flux mobilization assay.

In series [2] the target is T2, Potassium channel subfamily K member 10 (Homo sapiens) (UniProt P57789).
T2 sequence (whole entry): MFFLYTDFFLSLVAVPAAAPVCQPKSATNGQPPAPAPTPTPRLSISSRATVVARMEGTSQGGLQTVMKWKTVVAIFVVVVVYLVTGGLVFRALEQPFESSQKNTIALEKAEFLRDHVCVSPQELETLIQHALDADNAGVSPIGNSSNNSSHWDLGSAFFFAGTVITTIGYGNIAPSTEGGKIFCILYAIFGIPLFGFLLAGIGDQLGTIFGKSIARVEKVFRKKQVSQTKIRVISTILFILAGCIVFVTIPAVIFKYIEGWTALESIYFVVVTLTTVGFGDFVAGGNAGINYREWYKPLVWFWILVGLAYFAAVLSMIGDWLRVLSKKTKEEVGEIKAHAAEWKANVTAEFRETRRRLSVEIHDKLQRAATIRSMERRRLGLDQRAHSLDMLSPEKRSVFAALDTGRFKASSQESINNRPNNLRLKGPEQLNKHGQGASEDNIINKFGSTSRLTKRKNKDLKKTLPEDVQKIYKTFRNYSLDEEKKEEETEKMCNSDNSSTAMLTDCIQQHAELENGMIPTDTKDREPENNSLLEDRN
As to the kind of experiment: Activation of human TREK2 at 30 uM by thallium flux mobilization assay relative to control.

The target in series [3] is T3, Potassium channel subfamily K member 2 (Homo sapiens) (UniProt O95069).
T3 sequence (whole entry): T1 sequence (O95069 whole entry)
As to the kind of experiment: Activation of human TREK1 at 30 uM by thallium flux mobilization assay relative to control.

Series [4] addresses T4, Potassium channel subfamily K member 10 (Homo sapiens, UniProt P57789).
T4 sequence (P57789 whole entry): T2 sequence (whole entry)
The series can be described thus: Activation of human TREK2 by thallium flux mobilization assay.

Series [5] has as its target T2, Potassium channel subfamily K member 10 (Homo sapiens). The series can be described thus: Activation of human TREK2 at 10 uM by thallium flux mobilization assay relative to control.
In series [6] the target is T3, Potassium channel subfamily K member 2 (Homo sapiens). As to the kind of experiment: Activation of human TREK1 at 10 uM by thallium flux mobilization assay relative to control.
A short description of series [7]: Fraction unbound in human plasma. It is filed as ADME, cell-free.
A short description of series [8]: Fraction unbound in mouse plasma. It is filed as ADME, cell-free.
Series [9] can be described thus: Fraction unbound in rat plasma. Format: ADME, cell-free.

Regarding `O=C(Nc1ccc(F)cc1C(=O)O)c1ccc(SC(F)(F)F)cc1`, the EC50 (in general, the concentration giving half of the maximal effect) is 9.5 µM in series [1] and > 30 µM in series [4]. Also, the Activity stood at 43% in [2] (filed as activator) and 54% in series [3] (filed as activator).

On to `COc1ccc(NC(=O)c2ccc(SC(F)(F)F)cc2)c(C(=O)O)c1`, for which the EC50 is 20.2 µM in [1] and > 30 µM in series [4]. The Activity in [2] stood at 31%; in series [3] (filed as activator), 50%.

For `O=C(Nc1ccc([N+](=O)[O-])cc1C(=O)O)c1ccc(SC(F)(F)F)cc1`, the EC50 in series [1] was determined as 13.7 µM; in series [4], 26.5 µM. In addition, the Activity in [2] (filed as activator) was determined as 65%; in [3] (filed as activator) it was 56%.

With `O=C(Nc1cc(Br)ccc1C(=O)O)c1ccc(SC(F)(F)F)cc1`, the figures for the EC50 in [1] and in series [4] were 4.3 µM and 5.9 µM, respectively. Besides, the Activity amounted to 74% in series [2] (filed as activator) and 76% in series [3] (filed as activator).

Regarding `O=C(Nc1ccc2c(c1)CCCC2)c1ccccc1-c1nnn[nH]1`, the values for the Activity in series [5] and in series [6] were 1% and 0%, respectively.

As to `O=C(Nc1ccc(Cl)cc1C(=O)O)c1ccc(SC(F)(F)F)cc1`, the figures for the EC50 in series [1] and in series [4] were 3.8 µM and 6.8 µM, respectively. The Activity in series [2] (filed as activator) was found to be 76%; in series [3] (filed as activator) it was 69%.

For `O=C(O)Cc1ccccc1NC(=O)c1ccccc1C(F)(F)F`, the figures for the Activity in [2] and in [3] were -1% and 4%, respectively.

With `O=C(Nc1nccnc1C(=O)O)c1ccc(SC(F)(F)F)cc1`, the Activity in [2] was 0%; in [3] it was -6%.

For the compound `COc1ccc(C(=O)O)c(NC(=O)c2ccc(SC(F)(F)F)cc2)c1`, the EC50 in [1] came to 16.5 µM; in series [4] it was 28.5 µM. Also, the Activity in series [2] stood at 27%; in series [3] (filed as activator) it was 52%.

Turning to `O=C(Nc1ccccc1C(=O)O)c1ccc(SC(F)(F)F)cc1`, the fraction unbound – broadly, the share of the substance not bound to proteins or other matrix – is 0.026 in series [7], 0.081 in series [8] and 0.04 in series [9]. Besides, the values for the EC50 in series [1] and in series [4] were 12.8 µM and 5 µM, respectively. Moreover, the Activity worked out at 17% in series [2] and 50% in [3] (filed as activator).

On to `O=C(Nc1ccccc1-c1nnn[nH]1)c1ccc2c(c1)CCCC2`, for which, in series [1], it took 13.1 µM to reach a half-maximal effect (EC50). For the same compound, the Activity in [5] is 21%; in series [6] it was 24%.

Regarding `O=C(Nc1cnncc1C(=O)O)c1ccc(SC(F)(F)F)cc1`, the Activity in [2] and in series [3] was 1% throughout.

Regarding `O=C(O)c1cccc(NC(=O)c2ccccc2C(F)(F)F)c1`, the Activity was -1% in series [2] and -14% in series [3].

For the compound `O=C(Nc1ccoc1C(=O)O)c1ccc(SC(F)(F)F)cc1`, the Activity is 5% in [2] and 8% in series [3].

As to `O=C(Nc1ccccc1C(=O)O)c1cccc(C(F)(F)F)c1`, the results for the Activity in series [2] and in [3] were 12% and 28%, respectively.

With `O=C(O)c1cccc(NC(=O)c2cccc(C(F)(F)F)c2)c1`, the figures for the Activity in series [2] and in series [3] were -3% and -10%, respectively.

As for `O=C(Nc1ncccc1C(=O)O)c1ccc(SC(F)(F)F)cc1`, the Activity in series [2] is 1%; in series [3], -4%.

As for `O=C(Nc1ncncc1C(=O)O)c1ccc(SC(F)(F)F)cc1`, the results for the Activity in [2] and in [3] were 0% and -4%, respectively.

With `O=C(Nc1sccc1C(=O)O)c1ccc(SC(F)(F)F)cc1`, the EC50 in series [1] and in [4] was > 30 µM each time. Besides, the Activity in [2] was determined as 28%; in series [3] (filed as activator), 58%.

Take `O=C(Nc1ccc(OC(F)(F)F)cc1C(=O)O)c1ccc(SC(F)(F)F)cc1`: the EC50 in [1] was 4.6 µM; in [4], 5.6 µM. Moreover, the figures for the Activity in series [2] (filed as activator) and in [3] (filed as activator) were 60% and 57%, respectively.

Consider `Cc1sc(NC(=O)c2ccc(SC(F)(F)F)cc2)c(C(=O)O)c1C`, for which the EC50 in [1] is < 3.1 µM; in series [4] it was < 3.6 µM. The Activity in series [2] amounted to 12%; in [3], 31%.

As for `O=C(Nc1cc(Cl)ccc1C(=O)O)c1ccc(SC(F)(F)F)cc1`, the results for the EC50 in series [1] and in [4] were 4.4 µM and 7.5 µM, respectively. For the same compound, the Activity in [2] (filed as activator) was 73%; in series [3] (filed as activator), 66%.

Turning to `O=C(Nc1ccc(Br)cc1C(=O)O)c1ccc(SC(F)(F)F)cc1`, the fraction unbound in [7] is 0.003; in series [8], 0.029; in series [9], 0.013. Further, the EC50 was 5.9 µM in [1] and 7.7 µM in series [4]. Besides, the Activity in series [2] (filed as activator) is 101%; in [3] (filed as activator), 114%.

`O=C(O)Cc1ccccc1NC(=O)c1cccc(C(F)(F)F)c1`: the Activity is 2% in series [2] and 5% in series [3].

Take `O=C(O)Cc1cccc(NC(=O)c2ccc(C(F)(F)F)cc2)c1`: the Activity was -1% in series [2] and 0% in [3].

Consider `O=C(Nc1sc(-c2ccccc2)cc1C(=O)O)c1ccc(SC(F)(F)F)cc1`, for which the EC50 was 22.4 µM in [1] and > 30 µM in series [4]. The Activity amounted to 49% in series [2] (filed as activator) and 83% in series [3] (filed as activator).

`O=C(Nc1ccccc1-c1nnn[nH]1)c1cccc2c1CCCC2`: the Activity is 2% in series [5] and 6% in series [6].

Consider `O=C(O)Cc1cccc(NC(=O)c2cccc(C(F)(F)F)c2)c1`, for which the Activity in series [2] is 1%; in [3], -1%.

On to `O=C(O)c1ccccc1NC(=O)c1ccccc1C(F)(F)F`, for which the results for the Activity in [2] and in series [3] were -3% and 1%, respectively.

For `O=C(Nc1ccccc1C(=O)O)c1ccc(C(F)(F)F)cc1`, the figures for the Activity in [2] and in series [3] were 12% and 28%, respectively.

Consider `O=C(Nc1ccccc1C(=O)O)c1cccc(SC(F)(F)F)c1`, for which the figures for the Activity in [2] and in [3] were 17% and 40%, respectively.

On to `O=C(O)c1cccc(NC(=O)c2ccc(C(F)(F)F)cc2)c1`, for which the Activity in series [2] was 0%; in series [3], -11%.

On to `O=C(O)Cc1ccccc1NC(=O)c1ccc(C(F)(F)F)cc1`, for which the Activity was 0% in series [2] and -6% in series [3].

Consider `O=C(O)Cc1cccc(NC(=O)c2ccccc2C(F)(F)F)c1`, for which the values for the Activity in series [2] and in series [3] were 0% and 2%, respectively.

On to `O=C(Nc1cccc2c1CCCC2)c1ccccc1-c1nnn[nH]1`, for which the values for the Activity in series [5] and in series [6] were 1% and 0%, respectively.
